Experimental data as given in ChEMBL document CHEMBL4706673, “The study on structure-activity relationship between chromone derivatives and inhibition of superoxide anion generating from human neutrophils” (Bioorg Med Chem Lett, 2021).
The source made the active and inactive calls. The rule behind the calls is not given here.

Key:
[1] = Inhibition of fMLF/CB-induced superoxide anion generation in human neutrophil at 10 uM relative to control; format: functional
[2] = Inhibition of fMLF/CB-induced superoxide anion generation in human neutrophil; format: functional, tissue-based
Neutrophil = assay: Inhibition of elastase release in fMLF/CB-stimulated human neutrophil at 10 µM

IC50 [2]	SMILES	inhibition at 10 µM [1]	inhibition (Neutrophil)
> 10 µM	COc1cc2oc(Sc3cccc(F)c3)cc(=O)c2c(OC)c1OC	47.5%	inactive
5.2 µM	COc1ccc2c(=O)cc(Oc3ccc(O)c(OC)c3)oc2c1	71.3%	inactive
> 10 µM	COc1cccc(Oc2cc(=O)c3c(OC)cc(OC)cc3o2)c1	22.4%	inactive
> 10 µM	COc1ccc2c(=O)cc(Oc3cccc(O)c3)oc2c1	6.9%	inactive
> 10 µM	COc1ccc(Oc2cc(=O)c3c(OC)cccc3o2)cc1OC	12.8%	inactive
> 10 µM	COc1cc(OC)c2c(=O)cc(Oc3ccccc3OC)oc2c1	2.5%	inactive
> 10 µM	COc1ccc2oc(Sc3cccc(F)c3)cc(=O)c2c1	17.3%	inactive
7 µM	COc1cc(OC)c2c(=O)cc(Sc3cccc(F)c3)oc2c1	61%	inactive
> 10 µM	COc1ccc2c(=O)cc(Oc3ccccc3OC)oc2c1	3.8%	inactive
> 10 µM	COc1cc(OC)cc(Oc2cc(=O)c3c(OC)cc(OC)cc3o2)c1	27.5%	inactive
5 µM	COc1ccc2c(=O)cc(Sc3cccc(F)c3)oc2c1	70.9%	inactive
1.3 µM	O=c1cc(N2CCOCC2)oc2c(-c3ccccc3)cccc12 [LY-294002]	93.4%	
> 10 µM	COc1cc(OC)cc(Oc2cc(=O)c3c(OC)cccc3o2)c1	-0.4%	inactive
> 10 µM	COc1cccc2oc(Sc3cccc(F)c3)cc(=O)c12	10.6%	inactive
> 10 µM	COc1cc(OC)c2c(=O)cc(Oc3ccc(OC)c(OC)c3)oc2c1	7.8%	inactive
> 10 µM	COc1cccc(Oc2cc(=O)c3ccc(OC)cc3o2)c1	46.8%	inactive
